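Interpolation was linear, between the two tested concentrations surrounding the appropriate level; five concentrations were tested over 48 hours in 96-well plates. At the GI50, growth is halved.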 Active and inactive are the calls of the source. No stated cut-off is given here; in the data, active = GI50 up to about 1.1 µM and inactive = higher.
Tests used:
Assay in all cases: NCI-60 cell line screen, 48 h
[1] = system: 786-0
[2] = system: A498
[3] = system: A549
[4] = system: ACHN
[5] = system: BT-549
[6] = system: CAKI-1
[7] = system: COLO 205
[8] = system: DU-145
[9] = system: EKVX
[10] = system: HCC 2998
[11] = system: HCT-116
[12] = system: HCT-15
[13] = system: HOP-62
[14] = system: HOP-92
[15] = system: HT-29
[16] = system: Hs-578T
[17] = system: IGROV-1
[18] = system: K562
[19] = system: KM12
[20] = system: LOX IMVI
[21] = system: M14
[22] = system: MCF7
[23] = system: MDA-MB-231
[24] = system: MDA-MB-435
[25] = system: MDA-N
[26] = system: MOLT-4
[27] = system: Malme-3M
[28] = system: NCI-H226
[29] = system: NCI-H23
[30] = system: NCI-H460
[31] = system: NCI-H522
[32] = system: NCI/ADR-RES
[33] = system: OVCAR-3
[34] = system: OVCAR-4
[35] = system: OVCAR-5
[36] = system: OVCAR-8
[37] = system: PC-3
[38] = system: RPMI-8226
[39] = system: RXF 393
[40] = system: SF-268
[41] = system: SF-295
[42] = system: SF-539
[43] = system: SK-MEL-28
[44] = system: SK-MEL-5
[45] = system: SK-OV-3
[46] = system: SN12C
[47] = system: SNB-19
[48] = system: SNB-75
[49] = system: SR
[50] = system: SW-620
[51] = system: TK-10
[52] = system: U-251
[53] = system: UACC-257
[54] = system: UACC-62
[55] = system: UO-31
[56] = system: CCRF-CEM
[57] = system: HL-60
[58] = system: T47D
[59] = system: SK-MEL-2

Measured: GI50

CSC1NC(c2ccccc2)=C(C#N)C(=O)N1C1OCC(OC(C)=O)C(OC(C)=O)C1OC(C)=O (stereo not drawn)
inactive: [1] > 100 µM | [2] > 100 µM | [3] > 100 µM | [4] > 100 µM | [5] > 100 µM | [6] > 100 µM | [7] > 100 µM | [8] > 100 µM | [9] > 100 µM | [10] > 100 µM | [11] 47.9 µM | [13] > 100 µM | [14] 86.3 µM | [15] > 100 µM | [16] > 100 µM | [17] > 100 µM | [18] > 100 µM | [19] > 100 µM | [20] > 100 µM | [21] > 100 µM | [22] > 100 µM | [23] > 100 µM | [24] > 100 µM | [25] > 100 µM | [26] > 100 µM | [27] > 100 µM | [28] > 100 µM | [29] > 100 µM | [30] > 100 µM | [31] > 100 µM | [32] > 100 µM | [33] > 100 µM | [34] > 100 µM | [35] > 100 µM | [36] > 100 µM | [37] > 100 µM | [38] > 100 µM | [39] > 100 µM | [40] > 100 µM | [41] > 100 µM | [42] > 100 µM | [43] > 100 µM | [44] > 100 µM | [45] > 100 µM | [46] > 100 µM | [47] > 100 µM | [48] > 100 µM | [49] > 100 µM | [50] > 100 µM | [51] > 100 µM | [52] > 100 µM | [53] > 100 µM | [54] > 100 µM | [55] > 100 µM
> 100 µM: [12]

O=C1CC(c2ccccc2)[S+]([O-])c2ccccc2N1 (stereo not drawn)
> 100 µM: [12]
inactive: [1] > 100 µM | [3] > 100 µM | [4] > 100 µM | [5] > 100 µM | [6] > 100 µM | [56] > 100 µM | [7] > 100 µM | [8] > 100 µM | [9] > 100 µM | [11] > 100 µM | [57] > 100 µM | [13] > 100 µM | [15] > 100 µM | [16] > 100 µM | [17] > 100 µM | [18] > 100 µM | [19] > 100 µM | [20] > 100 µM | [21] > 100 µM | [22] > 100 µM | [23] > 100 µM | [24] > 100 µM | [26] > 100 µM | [27] > 100 µM | [28] > 100 µM | [29] > 100 µM | [30] > 100 µM | [31] > 100 µM | [32] > 100 µM | [33] > 100 µM | [34] > 100 µM | [35] > 100 µM | [36] 61.7 µM | [37] > 100 µM | [38] > 100 µM | [40] > 100 µM | [41] > 10 µM | [43] > 100 µM | [44] > 100 µM | [45] > 100 µM | [46] > 100 µM | [47] > 100 µM | [48] > 100 µM | [49] 65.2 µM | [58] > 100 µM | [51] > 100 µM | [52] > 100 µM | [53] 23.1 µM | [54] > 100 µM | [55] > 100 µM

Clc1ccc(-c2cc(-c3cc(-c4ccc(Cl)cc4)[nH]n3)[nH]n2)cc1
inactive: [2] > 100 µM | [4] > 100 µM | [5] > 100 µM | [7] > 100 µM | [8] > 100 µM | [9] > 100 µM | [11] > 100 µM | [17] > 100 µM | [18] > 100 µM | [21] > 100 µM | [24] > 100 µM | [25] > 100 µM | [26] > 100 µM | [27] > 100 µM | [28] > 100 µM | [29] > 100 µM | [31] > 100 µM | [33] > 100 µM | [35] > 100 µM | [37] > 100 µM | [39] > 100 µM | [59] > 100 µM | [44] > 100 µM | [45] > 100 µM | [58] > 100 µM | [53] > 100 µM | [55] > 100 µM

Reference: ChEMBL document CHEMBL1201862, “PubChem BioAssay data set” (2004)
